In patent US3952061A, “Method of isomerizing humulone to isohumulone by catalytic acceleration with metal salts” (Atlantic Research Institute Limited, priority 1967, dated 1976):
Read-outs that look alike come from different tables or passages of the source.

What was measured:
tubercular bacteria = settings: tests in vitro; cited from earlier work
[1] = type: physicochemical
Method: The acceleration of the isomerization in accordance with the present invention is particularly striking at pH values of between 4 and 8. […] For the characterization of this acceleration of the conversion of humulone to isohumulone, reaction-kinetic experiments at different temperatures are shown in the accompanying figures. As reaction media there is used an 0.1 and 0.025 molar sodium acetate solution to which there are added in each case the metal salts in concentrations of 10^^-3 mol/liter and 10^^-4 mol/liter, respectively. Furthermore, pure metal salt solutions of higher concentration (0.025 mol/liter) (FIG. 2) of different pH were also used for the conversion of the humulone.
By way of comparison, the slow isomerization reaction in pure phosphate buffers is also recorded. It should be emphasized that the sodium acetate in the reaction solutions is not necessary for the reaction itself, but merely serves to maintain the pH constant. […] For FIGS. 1 and 2, the logarithm of the humulone extinction measured in a spectral photometer was plotted against the reaction time (in accordance with the law of Lambert and Beer, the extinction is directly proportional to the concentration).

Row | Molecule | activity compared with Conteben (tubercular bacteria) | Half-Life ([1]; acetate buffer + cacl2, pH 8) | Half-Life ([1]; acetate buffer + cdcl2, pH 7) | Half-Life ([1]; acetate buffer + mgcl2, pH 7.5) | Half-Life ([1]; acetate buffer + mgcl2, pH 8) | Half-Life ([1]; acetate buffer + mncl2, pH 7.5) | Half-Life ([1]; acetate buffer + niso4, pH 6.5) | Half-Life ([1]; acetate buffer, pH 7) | Half-Life ([1]; phosphate buffer, pH 5.5) | Half-Life about (bacl2 solution, pH 6.9) | Half-Life about (cacl2 solution, pH 6.6) | Half-Life about (cecl3 solution, pH 4.2) | Half-Life about (niso4 solution, pH 4.7) | Half-Life about (phosphate buffer, pH 5.5) | Half-Life about (phosphate buffer, pH 7.2)
1 | CC(C)=CCC(=O)C1(O)C(O)=C(C(=O)CC(C)C)C(=O)C1CC=C(C)C (stereo not drawn) [isohumulone] | practically just as active as Conteben |  |  |  |  |  |  |  |  |  |  |  |  |  | 
2 | humulone |  | 22 min | 5.9 min | 7.3 min | 2.6 min | 3.2 min | 2.5 min | 360 min | 120 min | ~9 min | ~2 min | ~10 min | ~0.7 min | ~100 min | ~100 min
